Measured values reported in US10076576B2, “Minimally toxic prodrugs” (priority 2012, dated 2018).
Several values for one entry are separate records, joined by “and”; a condition that tells them apart may be missing. Identical values can stand only once.

Legend:
[1] = target: T1, TOP (recombinant human thimet oligopeptidase) (Homo sapiens, UniProt P52888); assay: Reactivation assay with purified TOP; format: biochemical; conditions: 3 h at 37° C.; for % Metabolites released after 3 h (TOP 5 nM) / TOP 5 nM (cleavage +/−): 50 μM compound
T1 construct: purchased R&D systems 3439-ZN
Experimental: (§1) TOP (recombinant human thimet oligopeptidase, R&D systems, Ref 3439-ZN) was diluted at 10 nM in a solution of 50 mM Tris-HCl pH 7.4/0.5M NaCl/0.1M DTT. CD26 and FAP were diluted at 1 μg/mL in a Tris-HCl pH 7.5 buffer. Reactions were initiated by addition of 50 μM of each compound to enzymes solutions (1 V enzyme solution+1 V 100 μM drug solution). Samples were incubated for 0, 1, or 3 hours at 37° C. in a water bath in the presence of purified enzymes. Fifty μL of sample were collected at each time point and processed as described above for human plasma. Activation of Suc-βALAL-dox was tested in parallel as a reference.

[2] = target: T2, CD10 (recombinant human neprilysin) (Homo sapiens, UniProt P08473); assay: Reactivation assay with purified CD10; format: biochemical; conditions: 3 h at 37° C.; for % Metabolites released after 3 h (CD10 10 nM) / CD10 10 nM (cleavage +/−): 50 μM compound
T2 construct: purchased R&D systems 1182-ZN

[3] = system: LS-174T tumor cell secreted peptidases; assay: Reactivation assay in LS174T tumor cell conditioned medium; format: biochemical, human; conditions: for activation by tumor cell secreted enzymes (in words): LS174T tumor cell conditioned medium
Experimental: Sub-confluent cultures of LS-174T tumor cells were washed twice with a saline phosphate buffer solution, and fresh culture medium (DMEM-F12 without phenol red) containing 0.02% bovine serum albumin is added (100 μl/cm^2). After 24 hours incubation, the conditioned medium is collected, centrifuged for 10 minutes at 300 g, buffered with 1 M Tris-HCl, pH 7.4 (1 volume of buffer+19 volumes of medium) and concentrated 20 times by […] (cutoff threshold of 10 kDa).
Drug compounds (50 μM) were incubated for 0, 1, 3 or 5 hours at 37° C. in the presence of freshly prepared LS174T tumor cell conditioned medium. Fifty μL of sample were collected at each time point and processed as described above for human plasma.

[4] = target: dihydrofolate reductase (DHFR) (Homo sapiens, UniProt P00374); conditions: cited from earlier work
[5] = system: tumor cell lines; conditions: cited from earlier work
[6] = Stability in citrated human plasma; conditions: 5 hours incubation at 37° C. in citrated human plasma (pH7), 50 μM
Experimental: The drug conjugates (50 μM) were mixed with human plasma and incubated for 5 hours at 37° C. in a water bath. […] Supernatant was collected.

[7] = Stability in citrated human blood; conditions: 5 hours incubation at 37° C. in citrated human blood, 50 μM
[8] = target: T3, FAP (Homo sapiens, UniProt Q12884); assay: Reactivation assay with purified FAP; format: biochemical; conditions: 3 h incubation at 37° C.
T3 sequence (Q12884 1-760): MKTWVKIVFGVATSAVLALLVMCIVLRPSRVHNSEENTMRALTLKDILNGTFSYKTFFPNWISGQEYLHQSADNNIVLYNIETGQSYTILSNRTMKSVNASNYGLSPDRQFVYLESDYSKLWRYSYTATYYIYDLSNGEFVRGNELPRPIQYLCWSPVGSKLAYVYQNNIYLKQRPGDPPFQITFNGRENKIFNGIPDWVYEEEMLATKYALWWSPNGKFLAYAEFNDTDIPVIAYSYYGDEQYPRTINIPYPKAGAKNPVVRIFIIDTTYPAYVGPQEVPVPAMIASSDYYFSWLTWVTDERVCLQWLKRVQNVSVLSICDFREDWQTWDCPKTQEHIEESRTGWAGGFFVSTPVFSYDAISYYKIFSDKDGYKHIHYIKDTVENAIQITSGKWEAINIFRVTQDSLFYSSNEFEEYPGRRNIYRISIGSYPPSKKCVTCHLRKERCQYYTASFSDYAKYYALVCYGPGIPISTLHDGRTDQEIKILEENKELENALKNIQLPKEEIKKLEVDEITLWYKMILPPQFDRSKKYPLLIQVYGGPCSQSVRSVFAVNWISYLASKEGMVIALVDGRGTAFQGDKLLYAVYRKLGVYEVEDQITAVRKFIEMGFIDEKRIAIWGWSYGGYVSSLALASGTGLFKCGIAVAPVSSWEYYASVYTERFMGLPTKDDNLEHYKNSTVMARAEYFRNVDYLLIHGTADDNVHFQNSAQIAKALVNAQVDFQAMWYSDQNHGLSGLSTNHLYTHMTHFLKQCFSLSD
Experimental: as §1

[9] = target: CD26 (Homo sapiens, UniProt P27487); assay: Reactivation assay with purified CD26; format: biochemical; conditions: 3 h incubation at 37° C.
Experimental: as §1

[10] = In vivo toxicity after single iv bolus injection (body weight); set-up: species or system OF-1 mice
Experimental: FIG. 1. Effect of PhAc-peptide-Dox conjugates on the body weight of OF-1 normal mice (n=4). […] Results represent the mean body weight evolution.
The in vivo toxicity was evaluated by monitoring body weight.

T2 sequence (P08473 52-750 limits assumed): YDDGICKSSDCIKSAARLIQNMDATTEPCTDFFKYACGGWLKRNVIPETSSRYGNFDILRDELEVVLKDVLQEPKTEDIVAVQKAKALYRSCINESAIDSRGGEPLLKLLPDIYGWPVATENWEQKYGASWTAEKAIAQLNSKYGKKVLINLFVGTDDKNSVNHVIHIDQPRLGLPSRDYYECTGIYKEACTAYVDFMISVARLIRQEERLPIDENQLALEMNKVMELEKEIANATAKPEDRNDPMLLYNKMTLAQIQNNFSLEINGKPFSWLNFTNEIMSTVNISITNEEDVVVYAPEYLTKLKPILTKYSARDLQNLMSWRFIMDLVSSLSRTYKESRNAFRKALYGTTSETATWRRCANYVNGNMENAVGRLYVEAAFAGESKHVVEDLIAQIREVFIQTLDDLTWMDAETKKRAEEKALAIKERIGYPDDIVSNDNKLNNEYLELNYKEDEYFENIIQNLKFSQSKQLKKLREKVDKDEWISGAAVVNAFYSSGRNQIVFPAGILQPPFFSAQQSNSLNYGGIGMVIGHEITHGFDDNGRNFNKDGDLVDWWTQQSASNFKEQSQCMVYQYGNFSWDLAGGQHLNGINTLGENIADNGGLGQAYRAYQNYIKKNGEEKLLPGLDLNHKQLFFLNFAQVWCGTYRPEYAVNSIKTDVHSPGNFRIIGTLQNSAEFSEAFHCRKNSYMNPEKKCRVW
T1 sequence (P52888 whole entry): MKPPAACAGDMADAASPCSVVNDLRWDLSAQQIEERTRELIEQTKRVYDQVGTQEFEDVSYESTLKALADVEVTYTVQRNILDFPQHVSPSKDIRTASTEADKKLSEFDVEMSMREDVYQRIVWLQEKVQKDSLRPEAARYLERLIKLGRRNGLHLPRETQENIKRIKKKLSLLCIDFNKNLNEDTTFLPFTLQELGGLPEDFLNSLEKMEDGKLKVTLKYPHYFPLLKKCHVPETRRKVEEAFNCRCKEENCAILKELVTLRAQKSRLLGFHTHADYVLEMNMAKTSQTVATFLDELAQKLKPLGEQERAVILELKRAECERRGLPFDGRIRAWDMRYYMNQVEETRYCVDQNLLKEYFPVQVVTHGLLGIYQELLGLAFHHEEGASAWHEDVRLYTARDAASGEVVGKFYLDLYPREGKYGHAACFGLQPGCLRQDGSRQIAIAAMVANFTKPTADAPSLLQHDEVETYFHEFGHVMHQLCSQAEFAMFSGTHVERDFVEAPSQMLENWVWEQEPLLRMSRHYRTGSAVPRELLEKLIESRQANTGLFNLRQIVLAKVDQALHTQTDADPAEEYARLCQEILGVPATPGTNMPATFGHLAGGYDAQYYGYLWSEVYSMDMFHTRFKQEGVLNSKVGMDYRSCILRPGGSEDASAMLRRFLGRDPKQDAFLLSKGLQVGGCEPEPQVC
CD26, sequence (P27487 whole entry): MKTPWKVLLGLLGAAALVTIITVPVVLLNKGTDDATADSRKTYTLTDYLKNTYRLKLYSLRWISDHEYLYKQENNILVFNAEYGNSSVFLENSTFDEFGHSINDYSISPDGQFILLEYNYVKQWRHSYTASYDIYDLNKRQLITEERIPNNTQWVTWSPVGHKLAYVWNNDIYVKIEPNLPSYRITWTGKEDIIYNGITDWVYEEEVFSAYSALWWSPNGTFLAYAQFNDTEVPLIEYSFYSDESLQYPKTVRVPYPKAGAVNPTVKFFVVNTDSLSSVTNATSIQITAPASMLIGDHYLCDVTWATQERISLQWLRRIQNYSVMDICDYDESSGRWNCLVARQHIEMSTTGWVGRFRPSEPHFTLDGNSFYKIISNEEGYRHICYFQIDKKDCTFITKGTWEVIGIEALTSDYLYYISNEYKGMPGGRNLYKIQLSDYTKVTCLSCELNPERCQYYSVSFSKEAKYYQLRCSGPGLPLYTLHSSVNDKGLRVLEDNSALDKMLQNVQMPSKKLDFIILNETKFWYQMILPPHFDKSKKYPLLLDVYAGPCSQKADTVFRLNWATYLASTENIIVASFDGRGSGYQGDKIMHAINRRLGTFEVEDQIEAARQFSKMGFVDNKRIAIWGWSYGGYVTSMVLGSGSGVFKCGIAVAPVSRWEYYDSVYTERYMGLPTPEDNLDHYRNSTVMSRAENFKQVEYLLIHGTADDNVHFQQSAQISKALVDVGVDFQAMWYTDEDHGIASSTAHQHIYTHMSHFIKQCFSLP
dihydrofolate reductase (DHFR), sequence (P00374 whole entry, species assumed): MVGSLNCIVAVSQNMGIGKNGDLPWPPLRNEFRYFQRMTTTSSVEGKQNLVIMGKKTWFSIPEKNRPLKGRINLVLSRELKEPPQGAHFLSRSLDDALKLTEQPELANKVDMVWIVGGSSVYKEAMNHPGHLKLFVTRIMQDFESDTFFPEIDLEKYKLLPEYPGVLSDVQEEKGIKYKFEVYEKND

Compound	% Metabolites released after 3 h (TOP 5 nM) [1]	cleavage by CD10 (in words) [2]	% Metabolites released after 3 h (CD10 10 nM) [2]	% Metabolites released after 5 h (LS174T CM20xcc) ([3]; 5 h at 37° C., 50 μM compound)	activation by tumor cell secreted enzymes (in words) [3]	further results
PhAc-KLGP-doxorubicin	31% and 31 ± 5%	not or very slightly activated	<5%	39 ± 13%	mainly GP-Dox is detected	CD10 10 nM (cleavage +/−) [2]: −* (*less than 5% of metabolites detected)
Methotrexate	–	–	–	–	–	affinity for DHFR relative to folate [4]: ~1000 fold
COc1cc2cc(c1Cl)N(C)C(=O)C[C@H](OC(=O)[C@H](C)N(C)C(C)=O)[C@]1(C)O[C@H]1[C@H](C)[C@@H]1C[C@@](O)(NC(=O)O1)[C@H](OC)/C=C/C=C(\C)C2 [Maytansine]	–	–	–	–	–	fold higher cytotoxicity than the Vinca alkaloids [5]: about 100 fold; fold higher toxicity than doxorubicin [5]: about 1000 fold
COc1cccc2c1C(=O)c1c(O)c3c(c(O)c1C2=O)CC(O)(C(=O)CO)CC3OC1CC(NC(=O)C(Cc2ccccc2)NC(=O)C2CCCN2C(=O)C(CC(C)C)NC(=O)C(C)NC(=O)CP(=O)(O)O)C(O)C(C)O1 (stereo not shown) [PhAc-ALPF-Dox, PhAc-ALPF-doxorubicin]	<5%	–	0%	11 ± 6%	activated into F-Dox	TOP 5 nM (cleavage +/−) [1]: −* (*less than 5% of metabolites detected); % metabolites released: Dox [6]: 0%; % metabolites released: F-Dox [6]: 0%; total % metabolites [6]: 0%; % metabolites released: Dox [7]: 4%; % metabolites released: F-Dox [7]: 1%; total % metabolites [7]: 5%
PhAc-DLGP-doxorubicin	0%	not or very slightly activated	0%	0%	not activated	cleavage by TOP (in words) [1]: not cleaved
COc1cccc2c1C(=O)c1c(O)c3c(c(O)c1C2=O)C[C@@](O)(C(=O)CO)C[C@@H]3O[C@H]1C[C@H](NC(=O)[C@@H]2CCCN2C(=O)CN)[C@H](O)[C@H](C)O1 [GP-Dox, NH2-Gly-Pro-Doxorubicin]	–	–	–	–	–	conversion to Dox by FAP [8]: 62%; conversion to Dox by CD26 [9]: 97%
PhAc-TSGP-doxorubicin	38% and 38 ± 2%	not or very slightly activated	0%	35 ± 18%	mainly GP-Dox is detected	–
PhAc-AIGP-doxorubicin	<5%	–	18% and 18 ± 3%	3 ± 3%	not activated	cleavage by TOP (in words) [1]: not cleaved; TOP 5 nM (cleavage +/−) [1]: −* (*less than 5% of metabolites detected); LS174T CM20xcc (activation +/−) ([3]; 5 h at 37° C., conditioned medium concentrated 20 times, 50 μM compound): −* (*less than 5% of metabolites detected)
COc1cccc2c1C(=O)c1c(O)c3c(c(O)c1C2=O)CC(O)(C(=O)CO)CC3OC1CC(NC(=O)C(CC(C)C)NC(=O)C(C)NC(=O)C(CC(C)C)NC(=O)C(C)NC(=O)CP(=O)(O)O)C(O)C(C)O1 (stereo not shown) [PhAc-ALAL-Dox, PhAc-ALAL-doxorubicin]	44% and 44 ± 6%	not efficiently cleaved	–	65 ± 19%	activated	CD10 10 nM (cleavage +/−) [2]: −* (*less than 5% of metabolites detected); % metabolites released: AL-Dox [6]: 0%; % metabolites released: Dox [6]: <1%; % metabolites released: L-dox [6]: 2%; total % metabolites [6]: 2%; body weight loss (in words) ([10]; 80 μmol/kg single iv): No significant body weight loss; toxicity (in words) ([10]; 160 μmol/kg single iv): high toxicity; % metabolites released: AL-Dox [7]: 0%; % metabolites released: Dox [7]: 9%; % metabolites released: L-dox [7]: 6%; total % metabolites [7]: 15%
COc1cccc2c1C(=O)c1c(O)c3c(c(O)c1C2=O)CC(O)(C(=O)CO)CC3OC1CC(NC(=O)C(Cc2ccccc2)NC(=O)C(C)NC(=O)C(CC(C)C)NC(=O)C(C)NC(=O)CP(=O)(O)O)C(O)C(C)O1 (stereo not shown) [PhAc-ALAF-Dox, PhAc-ALAF-doxorubicin]	<5%	moderately cleaved	24 ± 5%	32 ± 15%	activated into F-Dox	TOP 5 nM (cleavage +/−) [1]: −* (*less than 5% of metabolites detected); % metabolites released: Dox [6]: 0%; % metabolites released: F-Dox [6]: 2%; total % metabolites [6]: 2%; % metabolites released: Dox [7]: 5%; % metabolites released: F-Dox [7]: 5%; total % metabolites [7]: 10%
PhAc-GPGP-doxorubicin	0%	not or very slightly activated	0%	0%	not activated	cleavage by TOP (in words) [1]: not cleaved
